# Calls of active or inactive are those of the source. The calls are words filed in the database; no cut-off is given here.
# What was measured:
# [1] = biological target: Tubulin beta chain (Bos taurus) (UniProt Q6B856); test: Compound was tested for its effect on microtubule stabilization isolated from bovine brain; not significant
# [2] = biological target: Tubulin beta chain (Bos taurus) (UniProt Q6B856); test: Compound was tested for its effect on microtubule stabilization isolated from bovine brain; compound was inactive
# SK-OV-3 = test: Compound was tested for growth inhibitory activity against SK-OV-3 cell line; assay type: functional; settings: Homo sapiens
# SF-295 = test: Compound was tested for growth inhibitory activity against SF-295 cell line; assay type: functional; settings: Homo sapiens
# NCI/ADR-RES = test: Compound was tested for growth inhibitory activity against MCF-7/ADR cell line; assay type: functional; settings: Homo sapiens
# 786-0 = test: Compound was tested for growth inhibitory activity against 786-0 cell line; assay type: functional; settings: Homo sapiens
# SK-MEL-2 [3] = test: Compound was tested for growth inhibitory activity against SK-MEL-2 cell line; assay type: functional; settings: Homo sapiens
# OVCAR-8 = test: Compound was tested for growth inhibitory activity against OVCAR-8 cell line; assay type: functional; settings: Homo sapiens
# NCI-H226 = test: Compound was tested for growth inhibitory activity against NCI-H226 cell line; assay type: functional; settings: Homo sapiens
# MOLT-4 = test: Compound was tested for growth inhibitory activity against MOLT-4 cell line; assay type: functional; settings: Homo sapiens
# M14 = test: Compound was tested for growth inhibitory activity against M14 cell line; assay type: functional; settings: Homo sapiens
# SK-MEL-5 = test: Compound was tested for growth inhibitory activity against SK-MEL-5 cell line; assay type: functional; settings: Homo sapiens
# HOP-62 = test: Compound was tested for growth inhibitory activity against HOP-62 cell line; assay type: functional; settings: Homo sapiens
# Hs-578T = test: Compound was tested for growth inhibitory activity against HS 578T cell line; assay type: functional; settings: Homo sapiens
# HCC 2998 = test: Compound was tested for growth inhibitory activity against HCC2998 cell line; assay type: functional; settings: Homo sapiens
# SR = test: Compound was tested for growth inhibitory activity against SR cell line; assay type: functional; settings: Homo sapiens
# KM12 = test: Compound was tested for growth inhibitory activity against KM12 cell line; assay type: functional; settings: Homo sapiens
# MDA-MB-435 = test: Compound was tested for growth inhibitory activity against MDA-MB-435 cell line; assay type: functional; settings: Homo sapiens
# PC-3 = test: Compound was tested for growth inhibitory activity against PC-3 cell line; assay type: functional; settings: Homo sapiens
# SF-539 = test: Compound was tested for growth inhibitory activity against SF-539 cell line; assay type: functional; settings: Homo sapiens
# OVCAR-3 = test: Compound was tested for growth inhibitory activity against OVCAR-3 cell line; assay type: functional; settings: Homo sapiens
# HT-29 = test: Compound was tested for growth inhibitory activity against HT-29 cell line; assay type: functional; settings: Homo sapiens
# A498 = test: Compound was tested for growth inhibitory activity against A498 cell line; assay type: functional; settings: Homo sapiens
# RXF 393 = test: Compound was tested for growth inhibitory activity against RXF 393 cell line; assay type: functional; settings: Homo sapiens
# HCT-15 = test: Compound was tested for growth inhibitory activity against HCT-15 cell line; assay type: functional; settings: Homo sapiens
# MCF7 = test: Compound was tested for growth inhibitory activity against MCF-7 cell line; assay type: functional; settings: Homo sapiens
# SF-268 = test: Compound was tested for growth inhibitory activity against SF-268 cell line; assay type: functional; settings: Homo sapiens
# UO-31 = test: Compound was tested for growth inhibitory activity against UO-31 cell line; assay type: functional; settings: Homo sapiens
# COLO 205 = test: Compound was tested for growth inhibitory activity against COLO 205 cell line; assay type: functional; settings: Homo sapiens
# NCI-H522 = test: Compound was tested for growth inhibitory activity against NCI-H522 cell line; assay type: functional; settings: Homo sapiens
# U-251 = test: Compound was tested for growth inhibitory activity against U251 cell line; assay type: functional; settings: Homo sapiens
# BT-549 = test: Compound was tested for growth inhibitory activity against BT-549 cell line; assay type: functional; settings: Homo sapiens
# HL-60 = test: Compound was tested for growth inhibitory activity against HL-60 cell line; assay type: functional; settings: Homo sapiens
# SNB-19 = test: Compound was tested for growth inhibitory activity against SNB-19 cell line; assay type: functional; settings: Homo sapiens
# UACC-62 = test: Compound was tested for growth inhibitory activity against UACC-62 cell line; assay type: functional; settings: Homo sapiens
# [4] = biological target: Tubulin beta chain (Bos taurus) (UniProt Q6B856); test: Effect on microtubule stabilization isolated from bovine brain
# SK-MEL-2 [5] = test: Compound was tested for growth inhibitory activity against SK-MEL-2; assay type: functional; settings: Homo sapiens
# [6] = biological target: Tubulin beta chain (Bos taurus) (UniProt Q6B856); test: Compound was tested for its effect on microtubule stabilization isolated from bovine brain; NS: not significant
# Chain of Tubulin beta chain (Bos taurus) (Q6B856 whole entry): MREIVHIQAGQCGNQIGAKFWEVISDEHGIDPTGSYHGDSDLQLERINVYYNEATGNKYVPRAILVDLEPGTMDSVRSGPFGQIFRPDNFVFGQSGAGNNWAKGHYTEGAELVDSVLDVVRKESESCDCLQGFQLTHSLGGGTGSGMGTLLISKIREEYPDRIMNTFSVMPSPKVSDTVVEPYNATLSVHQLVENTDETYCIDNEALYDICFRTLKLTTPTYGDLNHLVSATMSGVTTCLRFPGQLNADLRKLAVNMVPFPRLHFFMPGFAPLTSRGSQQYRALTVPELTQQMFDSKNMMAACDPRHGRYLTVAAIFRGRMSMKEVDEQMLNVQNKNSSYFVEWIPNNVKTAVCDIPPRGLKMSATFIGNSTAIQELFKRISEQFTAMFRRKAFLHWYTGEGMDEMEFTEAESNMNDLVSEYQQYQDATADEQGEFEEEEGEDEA
GI50 (SK-OV-3) [nM],GI50 (786-0) [nM],GI50 (OVCAR-8) [nM],GI50 (NCI-H226) [nM],GI50 (MOLT-4) [nM],GI50 (SK-MEL-5) [nM],GI50 (HCC 2998) [nM],GI50 (MDA-MB-435) [nM],GI50 (PC-3) [nM],GI50 (OVCAR-3) [nM],GI50 (HT-29) [nM],SMILES,GI50 (SF-295) [nM],GI50 (NCI/ADR-RES) [nM],GI50 (M14) [nM],GI50 (HOP-62) [nM],GI50 (Hs-578T) [nM],GI50 (SR) [nM],GI50 (KM12) [nM],GI50 (SF-539) [nM],GI50 (A498) [nM],also measured
–,–,–,–,–,–,–,–,–,–,–,C=C1C[C@@]23O[C@]2(c2ccccc21)C1CC(OC(=O)[C@H](O)[C@@H](NC(=O)CC(C)(C)C)c2ccccc2)C3(C)C1(C)C (stereo not given in full),–,–,–,–,–,–,–,–,–,Relative stability [1]: inactive
–,–,–,–,–,–,–,–,–,–,–,C[C@@H]1C[C@@]23O[C@]2(c2ccccc21)C1CC(OC(=O)[C@H](O)[C@@H](NC(=O)OC(C)(C)C)c2ccccc2)C3(C)C1(C)C (stereo not given in full),–,–,–,–,–,–,–,–,–,Relative stability [2]: inactive
10,19.9,5.01,31.6,3.98,3.98,3.98,2.51,3.98,3.16,2.51,CC(=O)O[C@H]1C(=O)[C@@]2(C)[C@H]([C@H](OC(=O)c3ccccc3)[C@]3(O)C[C@H](OC(=O)[C@H](O)[C@@H](NC(=O)c4ccccc4)c4ccccc4)C(C)=C1C3(C)C)[C@]1(OC(C)=O)CO[C@@H]1C[C@@H]2O [PACLITAXEL],15.8,3160,10,15.8,3.16,2.51,3.16,3.16,79.4,GI50 (SK-MEL-2 [3]): 5.01 nM; GI50 (RXF 393): 7.94 nM; GI50 (HCT-15): 200 nM; GI50 (MCF7): 3.16 nM; GI50 (SF-268): 7.94 nM; GI50 (UO-31): 1000 nM; GI50 (COLO 205): 3.16 nM; GI50 (NCI-H522): 3.16 nM; GI50 (U-251): 3.98 nM; GI50 (BT-549): 6.31 nM; GI50 (HL-60): 5.01 nM; GI50 (SNB-19): 10 nM; GI50 (UACC-62): 3.98 nM
1910,2750,2450,977,4680,2340,525,589,3020,1860,447,COC(=O)N[C@@H](c1ccncc1)[C@@H](O)C(=O)OC1CC2C(C)(C)C1(C)[C@@]13CC(C)c4ccccc4[C@@]21O3 (stereo not given in full),2090,1910,1740,6170,1480,1450,933,4680,12300,Relative stability [4]: -5%; GI50 (SK-MEL-2 [5]): 2570 nM; GI50 (RXF 393): 4570 nM; GI50 (HCT-15): 977 nM; GI50 (MCF7): 2820 nM; GI50 (SF-268): 3800 nM; GI50 (UO-31): 562 nM; GI50 (COLO 205): 1860 nM; GI50 (NCI-H522): 813 nM; GI50 (U-251): 3980 nM; GI50 (BT-549): 22900 nM; GI50 (HL-60): 871 nM; GI50 (SNB-19): 2190 nM; GI50 (UACC-62): 2630 nM
–,–,–,–,–,–,–,–,–,–,–,C=C1C[C@@]23O[C@]2(c2ccccc21)C1CC(OC(=O)[C@H](O)[C@@H](NC(=O)OCC)c2ccc(OCc4ccccc4)cc2)C3(C)C1(C)C (stereo not given in full),–,–,–,–,–,–,–,–,–,Relative stability [6]: inactive

# Source: ChEMBL document CHEMBL1131541, “New synthetic inhibitors of microtubule depolymerization” (1998)
